Results: ChEMBL document CHEMBL1145498, “A systematic interaction map of validated kinase inhibitors with Ser/Thr kinases” (Proc Natl Acad Sci U S A, 2007)

Tests used:
[1] = biological target: Dual specificity protein kinase CLK3 (Homo sapiens) (UniProt P49761)
[2] = biological target: Dual specificity protein kinase CLK2 (Homo sapiens) (UniProt P49760)
[3] = biological target: Calcium/calmodulin-dependent protein kinase type 1G (Homo sapiens) (UniProt Q96NX5)
[4] = biological target: Cyclin-dependent kinase 6 (Homo sapiens) (UniProt Q00534)
[5] = biological target: Serine/threonine-protein kinase PAK 5 (Homo sapiens) (UniProt Q9P286)
Chain of Serine/threonine-protein kinase PAK 5 (Homo sapiens) (Q9P286 whole entry, looked up): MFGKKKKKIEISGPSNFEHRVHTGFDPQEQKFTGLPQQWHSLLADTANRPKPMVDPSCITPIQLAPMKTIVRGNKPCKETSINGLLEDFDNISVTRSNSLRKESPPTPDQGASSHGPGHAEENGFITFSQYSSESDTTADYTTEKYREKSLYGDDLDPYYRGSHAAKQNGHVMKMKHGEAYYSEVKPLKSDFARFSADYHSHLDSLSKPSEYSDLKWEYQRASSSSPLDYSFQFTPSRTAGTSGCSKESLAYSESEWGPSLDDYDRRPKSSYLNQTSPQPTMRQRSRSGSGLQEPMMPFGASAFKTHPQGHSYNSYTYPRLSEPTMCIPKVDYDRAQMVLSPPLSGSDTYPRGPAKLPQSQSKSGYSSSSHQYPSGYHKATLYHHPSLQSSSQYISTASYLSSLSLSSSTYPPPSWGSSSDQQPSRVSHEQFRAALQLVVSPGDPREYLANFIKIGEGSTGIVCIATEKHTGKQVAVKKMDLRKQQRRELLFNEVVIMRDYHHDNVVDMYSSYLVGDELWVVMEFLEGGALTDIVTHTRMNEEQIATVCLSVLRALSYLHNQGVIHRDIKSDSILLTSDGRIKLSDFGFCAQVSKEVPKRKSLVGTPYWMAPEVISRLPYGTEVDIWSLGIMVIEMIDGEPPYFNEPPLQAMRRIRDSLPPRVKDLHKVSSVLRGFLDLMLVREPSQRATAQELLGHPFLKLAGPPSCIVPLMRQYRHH

[6] = biological target: Calcium/calmodulin-dependent protein kinase kinase 2 (Homo sapiens, UniProt Q96RR4)
Chain of Calcium/calmodulin-dependent protein kinase kinase 2 (Q96RR4 2-588 limits assumed): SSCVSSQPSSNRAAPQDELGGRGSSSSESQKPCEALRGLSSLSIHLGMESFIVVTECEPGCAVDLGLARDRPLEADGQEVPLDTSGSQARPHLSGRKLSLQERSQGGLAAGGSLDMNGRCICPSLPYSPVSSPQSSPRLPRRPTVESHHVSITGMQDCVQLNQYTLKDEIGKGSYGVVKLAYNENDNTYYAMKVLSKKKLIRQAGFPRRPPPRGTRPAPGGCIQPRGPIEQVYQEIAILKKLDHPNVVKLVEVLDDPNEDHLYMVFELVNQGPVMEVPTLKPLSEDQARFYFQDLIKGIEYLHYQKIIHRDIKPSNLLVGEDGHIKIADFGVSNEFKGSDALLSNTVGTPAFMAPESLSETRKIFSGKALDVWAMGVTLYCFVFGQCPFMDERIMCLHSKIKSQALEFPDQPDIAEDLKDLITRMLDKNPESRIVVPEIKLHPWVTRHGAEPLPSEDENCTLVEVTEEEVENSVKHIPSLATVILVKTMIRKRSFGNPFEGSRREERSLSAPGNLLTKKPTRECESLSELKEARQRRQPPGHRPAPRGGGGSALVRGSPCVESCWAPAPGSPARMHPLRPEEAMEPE

[7] = biological target: Casein kinase I isoform gamma-1 (Homo sapiens) (UniProt Q9HCP0)
Chain of Casein kinase I isoform gamma-1 (Homo sapiens) (Q9HCP0 whole entry, looked up, canonical isoform): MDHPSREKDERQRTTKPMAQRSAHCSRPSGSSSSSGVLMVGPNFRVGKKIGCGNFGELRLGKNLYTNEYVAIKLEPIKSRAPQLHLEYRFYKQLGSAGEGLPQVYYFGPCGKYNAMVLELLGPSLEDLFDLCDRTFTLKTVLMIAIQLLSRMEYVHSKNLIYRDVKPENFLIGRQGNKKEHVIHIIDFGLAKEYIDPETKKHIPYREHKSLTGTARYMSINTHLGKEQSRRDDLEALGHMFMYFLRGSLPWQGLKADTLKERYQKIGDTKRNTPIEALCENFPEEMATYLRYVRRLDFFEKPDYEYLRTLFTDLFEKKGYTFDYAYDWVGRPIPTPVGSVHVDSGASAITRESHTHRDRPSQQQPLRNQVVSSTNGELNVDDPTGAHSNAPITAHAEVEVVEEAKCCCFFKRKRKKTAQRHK

[8] = biological target: Serine/threonine-protein kinase Chk2 (Homo sapiens, UniProt O96017)
Chain of Serine/threonine-protein kinase Chk2 (O96017 whole entry): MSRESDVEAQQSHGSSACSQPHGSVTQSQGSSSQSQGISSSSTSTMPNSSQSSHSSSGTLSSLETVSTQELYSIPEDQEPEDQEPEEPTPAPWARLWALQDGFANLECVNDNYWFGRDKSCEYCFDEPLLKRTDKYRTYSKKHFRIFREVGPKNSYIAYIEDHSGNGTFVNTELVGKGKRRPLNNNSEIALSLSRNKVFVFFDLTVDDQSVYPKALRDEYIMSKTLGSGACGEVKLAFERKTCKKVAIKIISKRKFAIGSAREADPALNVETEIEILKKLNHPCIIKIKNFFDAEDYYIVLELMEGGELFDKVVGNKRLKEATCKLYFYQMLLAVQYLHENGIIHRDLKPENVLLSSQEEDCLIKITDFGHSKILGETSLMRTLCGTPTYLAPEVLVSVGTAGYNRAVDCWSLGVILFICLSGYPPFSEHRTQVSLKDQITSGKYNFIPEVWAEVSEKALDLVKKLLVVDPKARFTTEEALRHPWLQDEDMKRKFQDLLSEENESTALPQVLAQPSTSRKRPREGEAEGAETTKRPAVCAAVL

[9] = biological target: Serine/threonine-protein kinase pim-2 (Homo sapiens, UniProt Q9P1W9)
Chain of Serine/threonine-protein kinase pim-2 (Q9P1W9 whole entry, looked up): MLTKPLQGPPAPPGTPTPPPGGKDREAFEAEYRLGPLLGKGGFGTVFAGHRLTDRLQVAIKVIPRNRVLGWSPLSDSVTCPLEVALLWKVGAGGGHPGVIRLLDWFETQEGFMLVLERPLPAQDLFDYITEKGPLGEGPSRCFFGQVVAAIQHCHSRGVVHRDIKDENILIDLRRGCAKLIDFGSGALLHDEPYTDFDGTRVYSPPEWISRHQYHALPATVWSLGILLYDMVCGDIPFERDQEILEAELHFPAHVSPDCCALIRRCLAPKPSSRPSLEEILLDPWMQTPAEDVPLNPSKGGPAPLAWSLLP

[10] = biological target: Cyclin-dependent kinase 16 (Homo sapiens) (UniProt Q00536)
[11] = biological target: Serine/threonine-protein kinase OSR1 (Homo sapiens) (UniProt O95747)
[12] = biological target: Mitogen-activated protein kinase 6 (Homo sapiens) (UniProt Q16659)
Chain of Mitogen-activated protein kinase 6 (Homo sapiens) (Q16659 whole entry): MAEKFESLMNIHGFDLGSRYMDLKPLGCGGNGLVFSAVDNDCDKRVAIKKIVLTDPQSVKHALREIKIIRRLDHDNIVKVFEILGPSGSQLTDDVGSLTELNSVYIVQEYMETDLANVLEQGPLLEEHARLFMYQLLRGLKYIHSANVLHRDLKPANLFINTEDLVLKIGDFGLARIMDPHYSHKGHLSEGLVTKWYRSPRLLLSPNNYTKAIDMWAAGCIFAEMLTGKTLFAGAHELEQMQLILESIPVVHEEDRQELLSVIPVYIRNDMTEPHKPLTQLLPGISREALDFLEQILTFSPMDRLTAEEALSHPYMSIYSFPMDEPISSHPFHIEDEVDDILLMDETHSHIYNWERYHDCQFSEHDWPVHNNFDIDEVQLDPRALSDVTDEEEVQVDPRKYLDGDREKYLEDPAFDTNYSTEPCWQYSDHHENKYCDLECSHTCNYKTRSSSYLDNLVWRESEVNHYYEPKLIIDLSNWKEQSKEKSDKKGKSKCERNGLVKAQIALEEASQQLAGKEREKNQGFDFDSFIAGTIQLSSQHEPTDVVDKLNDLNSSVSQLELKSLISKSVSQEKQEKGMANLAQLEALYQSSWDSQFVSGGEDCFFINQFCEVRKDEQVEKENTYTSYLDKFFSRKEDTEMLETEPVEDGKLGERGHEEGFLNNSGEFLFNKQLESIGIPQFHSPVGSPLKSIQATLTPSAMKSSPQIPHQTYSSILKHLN

[13] = biological target: Dual specificity protein kinase CLK1 (Homo sapiens) (UniProt P49759)
[14] = biological target: Ribosomal protein S6 kinase alpha-3 (Homo sapiens) (UniProt P51812)
[15] = biological target: Ribosomal protein S6 kinase alpha-3 (Homo sapiens) (UniProt P51812); remark: listed apart in the source
[16] = biological target: Serine/threonine-protein kinase 38 (Homo sapiens) (UniProt Q15208)
[17] = biological target: Serine/threonine-protein kinase 16 (Homo sapiens) (UniProt O75716)
[18] = biological target: STE20-like serine/threonine-protein kinase (Homo sapiens) (UniProt Q9H2G2)
[19] = biological target: T1, Serine/threonine-protein kinase 4 (Homo sapiens) (UniProt Q13043)
T1 sequence (whole entry): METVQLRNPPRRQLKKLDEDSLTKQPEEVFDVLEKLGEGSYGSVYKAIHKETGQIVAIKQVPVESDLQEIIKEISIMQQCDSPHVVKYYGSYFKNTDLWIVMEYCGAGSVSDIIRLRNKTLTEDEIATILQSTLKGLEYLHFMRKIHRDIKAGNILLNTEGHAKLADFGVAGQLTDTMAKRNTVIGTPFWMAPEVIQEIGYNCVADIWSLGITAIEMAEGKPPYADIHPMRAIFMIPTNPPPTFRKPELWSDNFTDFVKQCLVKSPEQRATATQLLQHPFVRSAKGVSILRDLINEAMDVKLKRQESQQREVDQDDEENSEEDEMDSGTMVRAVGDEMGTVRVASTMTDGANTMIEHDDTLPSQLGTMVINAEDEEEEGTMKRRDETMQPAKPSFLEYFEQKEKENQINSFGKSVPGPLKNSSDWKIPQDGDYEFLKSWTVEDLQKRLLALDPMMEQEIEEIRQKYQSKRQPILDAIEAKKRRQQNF

[20] = biological target: Serine/threonine-protein kinase 26 (Homo sapiens) (UniProt Q9P289)
Chain of Serine/threonine-protein kinase 26 (Homo sapiens) (Q9P289 2-416 limits assumed): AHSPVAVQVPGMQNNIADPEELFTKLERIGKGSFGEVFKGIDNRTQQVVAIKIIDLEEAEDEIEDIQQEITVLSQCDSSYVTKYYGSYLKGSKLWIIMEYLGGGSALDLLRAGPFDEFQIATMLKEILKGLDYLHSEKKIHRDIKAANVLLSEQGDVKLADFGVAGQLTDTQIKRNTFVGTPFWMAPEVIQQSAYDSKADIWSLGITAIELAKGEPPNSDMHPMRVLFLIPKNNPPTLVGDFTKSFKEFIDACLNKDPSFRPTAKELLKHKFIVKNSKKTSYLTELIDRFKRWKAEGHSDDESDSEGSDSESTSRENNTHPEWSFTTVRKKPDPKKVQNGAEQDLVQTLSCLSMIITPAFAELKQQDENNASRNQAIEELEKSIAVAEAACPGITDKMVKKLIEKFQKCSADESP

[21] = biological target: T2, Serine/threonine-protein kinase VRK3 (Homo sapiens) (UniProt Q8IV63)
T2 sequence (whole entry): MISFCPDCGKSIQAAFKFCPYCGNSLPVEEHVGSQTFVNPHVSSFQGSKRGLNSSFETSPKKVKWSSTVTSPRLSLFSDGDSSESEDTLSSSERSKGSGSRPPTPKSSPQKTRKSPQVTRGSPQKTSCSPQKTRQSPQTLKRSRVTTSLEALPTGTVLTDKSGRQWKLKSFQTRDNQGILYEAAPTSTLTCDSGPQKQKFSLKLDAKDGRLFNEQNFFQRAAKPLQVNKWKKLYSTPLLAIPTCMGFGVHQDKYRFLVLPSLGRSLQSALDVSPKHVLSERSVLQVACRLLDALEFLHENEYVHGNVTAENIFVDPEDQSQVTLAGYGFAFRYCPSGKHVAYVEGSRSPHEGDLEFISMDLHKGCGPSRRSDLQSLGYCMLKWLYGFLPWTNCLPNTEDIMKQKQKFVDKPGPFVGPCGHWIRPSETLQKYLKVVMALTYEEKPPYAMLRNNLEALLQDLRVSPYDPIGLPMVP

Chain of Dual specificity protein kinase CLK2 (Homo sapiens) (P49760 whole entry, looked up): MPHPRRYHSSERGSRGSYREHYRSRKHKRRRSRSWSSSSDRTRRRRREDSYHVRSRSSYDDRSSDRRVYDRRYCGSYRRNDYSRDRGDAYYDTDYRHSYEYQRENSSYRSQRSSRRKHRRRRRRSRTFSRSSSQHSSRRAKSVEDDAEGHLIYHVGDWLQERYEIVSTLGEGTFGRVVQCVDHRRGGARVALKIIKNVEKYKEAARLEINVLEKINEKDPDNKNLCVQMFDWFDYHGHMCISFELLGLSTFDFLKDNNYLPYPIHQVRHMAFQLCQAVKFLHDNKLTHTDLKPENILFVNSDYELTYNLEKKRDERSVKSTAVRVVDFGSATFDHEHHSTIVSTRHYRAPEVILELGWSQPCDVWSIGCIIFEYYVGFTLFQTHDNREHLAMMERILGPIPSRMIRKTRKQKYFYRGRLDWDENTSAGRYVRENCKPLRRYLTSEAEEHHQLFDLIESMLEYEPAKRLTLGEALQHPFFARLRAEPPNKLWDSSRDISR
Chain of Dual specificity protein kinase CLK3 (Homo sapiens) (P49761 whole entry, looked up): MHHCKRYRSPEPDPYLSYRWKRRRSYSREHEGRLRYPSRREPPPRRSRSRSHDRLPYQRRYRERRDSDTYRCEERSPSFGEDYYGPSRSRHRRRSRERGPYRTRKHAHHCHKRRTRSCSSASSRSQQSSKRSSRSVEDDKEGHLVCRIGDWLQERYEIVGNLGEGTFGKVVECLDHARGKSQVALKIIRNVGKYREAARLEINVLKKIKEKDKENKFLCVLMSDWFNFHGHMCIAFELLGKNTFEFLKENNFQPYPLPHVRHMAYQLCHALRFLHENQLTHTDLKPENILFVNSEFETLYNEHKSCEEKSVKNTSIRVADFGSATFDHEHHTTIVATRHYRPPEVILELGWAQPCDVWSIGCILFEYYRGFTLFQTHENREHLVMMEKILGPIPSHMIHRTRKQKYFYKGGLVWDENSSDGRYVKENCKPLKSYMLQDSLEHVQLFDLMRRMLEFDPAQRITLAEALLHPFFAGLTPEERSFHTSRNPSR

| ΔTm [1] [°C] | ΔTm [2] [°C] | ΔTm [3] [°C] | ΔTm [4] [°C] | ΔTm [5] [°C] | ΔTm [6] [°C] | ΔTm [7] [°C] | ΔTm [8] [°C] | ΔTm [9] [°C] | ΔTm [10] [°C] | ΔTm [11] [°C] | ΔTm [12] [°C] | ΔTm [13] [°C] | ΔTm [14] [°C] | ΔTm [15] [°C] | ΔTm [16] [°C] | ΔTm [17] [°C] | ΔTm [18] [°C] | ΔTm [19] [°C] | ΔTm [20] [°C] | Structure (SMILES) | further results |
| --- | --- | --- | --- | --- | --- | --- | --- | --- | --- | --- | --- | --- | --- | --- | --- | --- | --- | --- | --- | --- | --- |
| 0.1 | -0.2 | -0.2 | 0.9 | -0.2 | -0.1 | 0.7 | 0.1 | 0.2 | 0.1 | 0.3 | 1.5 | -1.5 | -0.2 | -0.3 | 0.1 | 0 | 0.1 | 0.2 | 0 | COc1ccc(COc2ccc(Cc3cnc(N)nc3N)cc2OC)cc1 | – |
| 0.4 | -0.9 | 0.4 | 0.2 | 0.7 | 0 | 0.7 | 0.4 | 0.2 | -0.8 | 1.6 | 1 | 0.7 | – | – | 0.1 | 0.3 | 0.7 | 0.4 | 1.5 | COc1ccc(CNC(=O)Nc2ncc([N+](=O)[O-])s2)cc1 | ΔTm [21]: -0.5 °C |
| 4.9 | 4.4 | 2.3 | 3.5 | 1.8 | 3.7 | 3.7 | 5.2 | 7.4 | 5.8 | 1.4 | 2 | 5.9 | – | – | 2.2 | 5.5 | 1.8 | 1.2 | 0.9 | N#C/C(=C1/Nc2ccccc2S1)c1ccnc(NCCc2cccnc2)n1 | ΔTm [21]: 0.9 °C |
| 2.3 | 4.2 | 3.6 | 2.7 | 2.7 | 6.3 | 0.9 | 7.9 | 5.2 | 0.8 | 2.1 | 1.4 | 3.1 | 5.1 | 4.4 | 3.6 | 11.5 | 6.4 | 2.1 | 8.5 | O=C1C=C2C(=Nc3c2c2c(c4c3=NC3=C4CCC=C3)C=NC=2)CC1 | – |
| 4.1 | 0.1 | 0.5 | -0.1 | -0.6 | 0.6 | 0.3 | 1.2 | 0 | -0.4 | 0.4 | 0.9 | 0.4 | – | 0.9 | – | – | – | – | – | Cc1nc(Nc2ncc(C(=O)Nc3c(C)cccc3Cl)s2)cc(N2CCN(CCO)CC2)n1 | – |
| 0.5 | 1.3 | – | -0.2 | 0.5 | 1.1 | 1.3 | 1.8 | 0.6 | -0.6 | 0.2 | 0.1 | 3.8 | – | 0.9 | 0.4 | 0.4 | 3.2 | 1.6 | 0.1 | COc1cc2ncnc(Nc3cccc(O)c3)c2cc1OC | – |
| 2.4 | 3.6 | 1.9 | 0.4 | 2.1 | 1.3 | 0.5 | 14.1 | 5.1 | 0 | 3 | 0.2 | 4.3 | – | – | 3.7 | 3.5 | 1.8 | 7.8 | 3.6 | CC(C)(C)c1nc2c3ccc(F)cc3c3c(=O)[nH]ccc3c2[nH]1 | ΔTm [21]: 0.2 °C |
| 3.2 | 3.6 | 0.5 | -0.2 | 4.3 | 3.5 | -0.9 | 10.6 | 8.2 | 1.9 | 3.7 | 5.5 | 4.7 | 4.8 | 7.8 | 3.6 | 1.7 | 8.4 | -0.4 | -0.2 | Cn1cc(/C=C2/C(=O)Nc3ccc(S(N)(=O)=O)cc32)c2ccccc21 | – |
| 1 | 0.2 | -0.3 | 1 | 0.1 | -0.8 | 0.6 | -0.7 | 0.6 | -0.7 | -0.4 | -0.1 | 2.1 | – | – | 0.4 | 0.6 | 0.2 | 1.4 | 0.3 | C[C@@H](N)[C@H]1CC[C@H](C(=O)Nc2ccncc2)CC1 | ΔTm [21]: 0.2 °C |
| 0.3 | 0.5 | 0.1 | 1.7 | -0.4 | 0.3 | 0.9 | 0.9 | 0.6 | 0.2 | 0.3 | 1.3 | 0.7 | 1.7 | 3 | 1.9 | 0 | 0.7 | 0.4 | -0.1 | Nc1n[nH]c2nnc(-c3c(-c4ccccc4)nn4ccccc34)cc12 | – |
| 2.1 | 5.9 | – | 2.1 | 1.7 | 6.8 | – | 12.9 | 0 | – | 3 | – | 5.1 | 8.6 | – | 5.6 | 3.3 | 6.5 | 0.5 | -0.1 | CCN(CC)CCNC(=O)c1c(C)[nH]c(/C=C2\C(=O)Nc3ccc(F)cc32)c1C | – |
| 1.1 | -0.6 | 0.5 | 0.3 | -0.7 | 0.5 | -0.2 | 0.2 | -0.3 | 0.2 | 0.8 | 1.3 | 0.1 | – | -0.4 | – | – | – | – | – | Clc1ccc(Nc2nnc(Cc3ccncc3)c3ccccc23)cc1 | – |

| Structure (SMILES) | ΔTm [1] [°C] | ΔTm [2] [°C] | ΔTm [3] [°C] | ΔTm [4] [°C] | ΔTm [5] [°C] | ΔTm [6] [°C] | ΔTm [7] [°C] | ΔTm [8] [°C] | ΔTm [9] [°C] | ΔTm [10] [°C] | ΔTm [11] [°C] | ΔTm [12] [°C] | ΔTm [13] [°C] | ΔTm [14] [°C] | ΔTm [15] [°C] | ΔTm [16] [°C] | ΔTm [17] [°C] | ΔTm [18] [°C] | ΔTm [19] [°C] | ΔTm [20] [°C] | further results |
| --- | --- | --- | --- | --- | --- | --- | --- | --- | --- | --- | --- | --- | --- | --- | --- | --- | --- | --- | --- | --- | --- |
| CN1CCC(Nc2ncc3ncnc(Nc4ccc(F)c(Cl)c4)c3n2)CC1 [FALNIDAMOL] | 2.7 | 4.2 | 0.5 | 1 | 2.5 | -0.1 | 0.4 | 0.2 | 0.1 | 7.7 | 1.4 | 0 | 0.5 | – | – | – | – | – | – | – | – |
| CN[C@@H]1CC2O[C@@](C)([C@@H]1OC)n1c3ccccc3c3c4c(c5c6ccccc6n2c5c31)C(=O)NC4 | 4.2 | 6.9 | – | 1 | 12.4 | 18.6 | 1.9 | – | – | – | 6.9 | 1 | – | – | 12.3 | 5.7 | 9.6 | 20.1 | 17.9 | 8.8 | ΔTm [21]: 0.3 °C |
